Test results from US11690858B1, “Neuroprotective mixture for mitigating the harmful effects of ischemic stroke” (Tricerapro Holding, LLC, priority 2018, dated 2023).
Where “and” joins values, the source holds several entries; their conditions need not be identical. Equal entries are not always repeated.

How the values were obtained:
[1] = system: rat model of ischemic infarct; conditions: cited from earlier work
[2] = system: fluid percussion model of head trauma; conditions: diffuse neuronal injury; cited from earlier work
[3] = system: diffuse anoxia injury model in rats; conditions: cited from earlier work; for amount of neuronal injury: diffuse anoxia injury model in rats; for entry into the cerebrospinal fluid (CSF): rats
[4] = system: rat model of ischemic stroke; test: Infarct volumes by treatment groups in a rat model of ischemic stroke; assay type: in vivo; set-up: unit not given here; conditions: for Infarct volume, Contra, Average / Infarct volume, Infarct, Average: average of 5 animals; for Infarct volume, Contra / Infarct volume, Infarct: individual animals; for Infarct volume, Contralateral / Infarct volume, Ipsilateral: rounded average
Text: Additional studies using a validated rat model for ischemic stroke have also been conducted. These studies made comparisons in stroke volumes between five different treatment groups: a. Ischemic stroke model in aged rats; no reperfusion; no neuroprotection b. Ischemic stroke model in aged rats; no reperfusion; neuroprotection administered c. Ischemic stroke model in aged rats; reperfusion (tPA) given; no neuroprotection d. Ischemic model in young rats; no reperfusion; no neuroprotection e. Ischemic stroke model in young rats; reperfusion (tPA) given; no neuroprotection

## [Cl-].[Cl-].[Mg+2] [MgCl2, magnesium chloride]
[1]; intraperitoneal injection, rat model of ischemia, reduced from 165 mm^3
  average size of infarcts: 122 mm^3
[1]; intraperitoneal, 1 mmol/kg immediately after MCA occlusion
  size of the measured infarct: decreased the size of the measured infarct
[2]
  extent of neuronal injury: limits the extent of neuronal injury
[3]
  amount of neuronal injury: alter the amount of neuronal injury
  entry into the cerebrospinal fluid (CSF): able to enter the cerebrospinal fluid (CSF)

## O=S(=O)([O-])[O-].[Mg+2] [magnesium sulfate]
[3]
  amount of neuronal injury: alter the amount of neuronal injury
  entry into the cerebrospinal fluid (CSF): able to enter the cerebrospinal fluid (CSF)

## tissue plasminogen activator [IPA]
[4]; aged rats, untreated aged 1.412
  Infarct volume, Contra, Average: 1.086
[4]; aged rats, untreated aged 12.918
  Infarct volume, Infarct, Average: 8.868
[4]; aged rats
  Infarct volume, Contra: 1.29 and 0.87 and 0.81 and 1.39 and 1.07
  Infarct volume, Infarct: 9.58 and 7.26 and 7.85 and 8.95 and 10.7
[4]; aged rats, untreated aged 1.4
  Infarct volume, Contralateral: 1.1
[4]; aged rats, untreated aged 12.9
  Infarct volume, Ipsilateral: 8.9
[4]; young rats, untreated young 1.028
  Infarct volume, Contra, Average: 1.178
[4]; young rats, untreated young 8.012
  Infarct volume, Infarct, Average: 4.208
[4]; young rats
  Infarct volume, Contra: 1.07 and 1.28 and 1.66 and 0.52 and 1.36
  Infarct volume, Infarct: 3.75 and 4.35 and 3.64 and 4.1 and 5.2
[4]; young rats, untreated young 1
  Infarct volume, Contralateral: 1.2
[4]; young rats, untreated young 8
  Infarct volume, Ipsilateral: 4.2
